Reference: patent US20070037800A1, “Method of treating neurological disorders using clotrimazole and derivatives thereof” (EnVivo Pharmaceuticals, Inc., priority 2005, published 2007)

Experiments:
R6/2 transgenic mice = test: Body weight in R6/2 transgenic mouse model of Huntington's disease; assay type: in vivo
Method: The rotarod test and body weight measurements were used to assess the therapeutic effects of clotrimazole in R6/2 transgenic mice. R6/2 and WT male mice at 4 weeks of age were trained 3 consecutive days on the accelerating rotarod. Each training day consisted of four sessions. After the training was complete, the animals were reassigned to new groups to create statistically homogenous cohorts. At 5 weeks of age, animals (n=10 per group) were dosed twice daily, intraperitoneally (IP) with clotrimazole at either 2 mg/kg or 10 mg/kg (equal to 4 and 20 mg/kg per day). Rotarod testing was performed at 6, 8, 10, and 12 weeks of age as described above. Body weights were collected every week.

microglia activation = conditions: has been shown; no source given; cited from earlier work
[1] = test system: Kainic acid lesion in C57BL/6 mice; test: Mouse model of acute neurodegeneration: kainic acid lesion volume; assay type: in vivo; conditions: KA 1.0 nmol i.s.; clotrimazole 2 mg/kg i.p. twice daily; vs KA+vehicle; P=0.010 (t test of difference in log[size]); two days after KA
Method: To test the hypothesis that clotrimazole may be neuroprotective against KA induced excitatory damage in the brain, clotrimazole was compared to benzamide as a positive control in the mouse model. Three study groups (n=8-9) were tested: (1) C57BL/6 treated with KA 1.0 nmol (i.s.) left hemisphere+vehicle (i.p.); (2) KA 1.0 nmol i.s. left hemisphere+clotrimazole (2mg/kg) i.p. twice daily for duration of the study (including a single dose 1 hour before KA); and (3) KA 1.0 nmol i.s. left hemisphere+benzamide (160 mg/kg, i.p. 30 min before injection and 3.5 hrs after). Kainic Acid (K0250), clotrimazole (C6019) and Benzamide (150762) were purchased from Sigma and prepared as followed: Kainic Acid was dissolved in phosphate buffered saline (1×PBS, pH 7.4), pH to 7.4 using NaOH. […]
Two days after injection of KA the animals were anesthetized and transcardially perfused with ice cold phosphate buffered saline (0.1 M PBS, pH 7.4) containing 10% sucrose and then perfused with ice-cold 4% paraformaldehyde in 0.1M PBS, pH 7.4. […] The area of the lesion, indicated by the lack of staining when compared to the contralateral (intact) striatum/cortex, was measured in each series of sections (n=25-30) blindly by means of an image analysis program and the lesion volume was calculated by a stereological method (Cavalieri's estimator of volume corrected for over projection).

R6/2 mice = test: Gait analysis (DigiGait) in R6/2 mice; assay type: in vivo, mouse
Source text: Gait analysis was also collected at 12 weeks, which is a time when clear differences have previously been described between R6/2 and wild-type. In this analysis, the DigiGait™ Imaging System, which is non-invasive, robust, and quantitative—in that it generates numerous indices of gait dynamics and posture—was used. The system simplifies kinematic observations and analyses by imaging the animals from below a transparent treadmill. Software, including artificial intelligence algorithms, quantifies the characteristics of gait, including step sequence patterns, stride length, cadence, and paw placement. The output also includes swing and stance durations, as well as braking and propulsion durations. Indices computed by DigiGait convey information about sensory and motor inputs modulating gait and gait variability.

SMILES: Clc1ccccc1C(c1ccccc1)(c1ccccc1)n1ccnc1 [clotrimazole]
- Body weight compared to vehicle-treated R6/2 mice (R6/2 transgenic mice; 4 mg/kg IP-BID, 12 week of age, F test ANOVA): maintained a higher body weight
- Body weight effect (R6/2 transgenic mice; 20 mg/kg IP-BID, any time point tested): did not have a statistically significant effect
- Weight in vivo (R6/2 transgenic mice; low dose of 4 mg/kg/day, preliminary data): positively affects
- Inhibition of microglia activation (microglia activation): potent inhibitor
- Lesion volume [1]: statistically significant improvement
- Motor performance by gait analysis (R6/2 mice; 4 and 20 mg/kg dosing, preliminary data): significantly improved the motor performance
- Swing ratio score (R6/2 mice; gait analysis at 12 weeks): significantly improved
